# Results as given in patent US6869788B2, “DNA encoding novel D-aminoacylase and process for producing D-amino acid by using the same” (Mitsui Chemicals, Inc., priority 2001, dated 2005).
# B1: D-aminoacylase: the D-aminoacylase according to this invention, whose physical properties are listed; source strain not stated at that place (protein, listed as Methylobacterium mesophilicum)
# chain: MTDSTRKHDLIIRGGTVIDGRRTPRFRADVAVRDGRLSAIGDLADHRAAQEIDATGRIVAPGFIDSHTHDDQAVLSQPQIPFKVSQGVTTVIAGNCGISAAPLRRDMDLPMPLNLIDVPAEERFTRFADYLDALRARPSSVNVAAMVGHSTLRAVTMPALDREANSEEIARMRALVQEAMDAGAIGVSTGTFYPPAVKATTEEIIEVCRPLTAAGGLYVTHMRDESDQVMTSLEETFRIGRALDVPVVVSHHKVQNTPNFGKSQVTLPFIREAMQRQRVCLDCYPYTAGSTMIRADRGMLEGRVLIAESLPHPECAGRDLDDIARDWGVDRVEAARRLQPGSAIYFLMDEGDVQRILAFDDTMIGSDGIPVGSKPHPRLWGTFPRVLGHYSRDVGLFPLETAVWKMTGLTARNFGLHGRGTLEAGQAADIVVFDAGTVRDAADYAEPTRPAEGIDAVIVNGAITWQGGQHTGARQGQVIRRQAAPSH
# Test system: D-aminoacylase derived from Methylobacterium mesophilicum MT 10894 (FERM BP-7856)
# Test: Substrate specificity of E. coli transformed by the DNA containing the D-aminoacylase gene to N-acetyl-DL-amino acids
# Type: biochemical
# Conditions: substrate 5 g/L, 40° C., 16 hours; activity with N-acetyl-DL-tryptophan as substrate = 100
# Procedure: Reactivity and an optical purity were evaluated by analyzing a D-amino acid produced in a reaction and a remaining N-acylamino acid by high performance liquid chromatography (column: CROWNPAK CR(−); Daicel Chemical Industries, Ltd.); column temperature: 40° C.; mobile phase: HClO4 aq. pH 1.5 and 0 to 15% methanol (v/v); flow rate 0.8 mL/min, detection: 210 nm).
# E. coli transformed by the plasmid shown in FIG. 1 in Example 7 was subject to shaking culture in an LB medium containing ampicillin (50 μg/mL) at 37° C. overnight. After culturing, the bacterial cells were harvested by centrifugation and washed with a 0.1 M phosphate buffer (pH 7.8). The bacterial cells were suspended in a 0.1 M phosphate buffer (pH 7.8).
# Substrate specificity of E. coli transformed by the plasmid shown in FIG. 1 in Example 7 was compared for N-acetyl-DL-amino acids. In this example, the reaction was conducted at a substrate N-acetyl-DL-amino acid concentration of 5 g/L at 40° C. for 16 hours. Relative activities to a variety of N-acetyl-DL-amino acids together with optical purities and reaction yields were determined, assuming that D-aminoacylase activity was 100 when N-acetyl-DL-tryptophan was a substrate.
row,Molecule,Relative activity (%)
1,CC(=O)NC(Cc1ccc(O)cc1)C(=O)O (racemic) [N-acetyl-DL-tyrosine],67
2,CC(=O)NC(Cc1c[nH]c2ccc(O)cc12)C(=O)O (racemic) [N-acetyl-DL-5-hydroxytryptophan],80
3,CC(=O)NC(COCc1ccccc1)C(=O)O (racemic) [N-acetyl-DL-o-benzylserine],30
4,CC(=O)NC(Cc1c[nH]c2ccccc12)C(=O)O (racemic) [N-acetyl-DL-tryptophan],100
5,CC(=O)NC(CCc1ccccc1)C(=O)O (racemic) [N-acetyl-DL-homophenylalanine],45
6,CC(=O)NC(Cc1ccc(F)cc1)C(=O)O (racemic) [N-acetyl-DL-4-fluorophenylalanine],99
7,CC(=O)NC(Cc1ccccc1)C(=O)O (racemic) [N-acetyl-DL-phenylalanine],104
8,CC(=O)NC(Cc1ccc(Cl)cc1)C(=O)O (racemic) [N-acetyl-DL-4-chlorophenylalanine],89

# Test system: not listed separately
# Test: Physical properties of the D-aminoacylase (optimal pH, optimal temperature, thermal stability)
# Type: physicochemical
# Conditions: not given
row,Molecule,Optimal temperature
1,B1,60° C.;

# Same assay, conditions: after heating at 40° C. for 20 hours
row,Molecule,Thermal stability: remaining activity [% remaining activity]
1,B1,80
